{
  "source": "patent US20200283734A1",
  "about": "“REPROGRAMMING OF A DIFFERENTIATED CELL TO AN UNDIFFERENTIATED CELL USING EXOSOME” (AGENCY FOR SCIENCE, TECHNOLOGY AND RESEARCH, priority 2017, published 2020)",
  "key": {"MCF7 EX-iCSCs": {"tested_on": "MCF7 EX-iCSCs", "experiment": "Drug resistance assay (Alamar Blue cell viability), MCF7", "assay_type": "cell-based", "details": "for drug resistance characteristics of EX-iCSCs towards cancer drugs: MCF7 EX-iCSCs (FIG. 17)", "protocol": "(§1) H7-exosome treated and non-treated A431 and MCF7 cancer cells were seeded at a density of 3×10^3 cells per well in a 96-well plate, in their respective medium. The anticancer drugs, cisplatin, doxorubicin and sunitinib were then added in concentration series ranging from 0.1 to 1000, 0.001 to 10, and 0.1 to 1000 μg/mL, respectively. After time periods of 24, 48 and 72 hours, the cells were subjected to an Alamar Blue assay for cell viability.\n(§2) Drug resistance has been associated with stem cell-like traits in cancer cells. The MCF7 and A431 cell lines were treated with exosomes to induce EX-iCSCs, following which they were subjected to viability (Alamar Blue) assays (FIG. 16, FIG. 17)."}, "A431 EX-iCSCs": {"tested_on": "A431 EX-iCSCs", "experiment": "Drug resistance assay (Alamar Blue cell viability), A431", "assay_type": "cell-based", "details": "A431 EX-iCSCs (FIG. 16)", "protocol": "as §1, §2"}},
  "data": [
    {"smiles": "N.N.[Cl][Pt][Cl]", "note": "[cisplatin]", "values": [
      {"measurement": "drug resistance characteristics of EX-iCSCs towards cancer drugs", "setting": "MCF7 EX-iCSCs", "result": "showed drug resistance characteristics"},
      {"measurement": "drug resistance characteristics of EX-iCSCs towards cancer drugs", "setting": "A431 EX-iCSCs", "result": "showed drug resistance characteristics"}
    ]},
    {"smiles": "COc1cccc2c1C(=O)c1c(O)c3c(c(O)c1C2=O)C[C@@](O)(C(=O)CO)C[C@@H]3O[C@H]1C[C@H](N)[C@H](O)[C@H](C)O1", "note": "[doxorubicin]", "values": [
      {"measurement": "viability of exosome-treated cells under drug compared to non-treated cells", "setting": "MCF7 EX-iCSCs; MCF7, H7-exosome treated, all time points (24, 48 and 72 hours)", "result": "significantly higher viability"},
      {"measurement": "drug resistance characteristics of EX-iCSCs towards cancer drugs", "setting": "MCF7 EX-iCSCs", "result": "showed drug resistance characteristics"},
      {"measurement": "drug resistance characteristics of EX-iCSCs towards cancer drugs", "setting": "A431 EX-iCSCs", "result": "showed drug resistance characteristics"}
    ]}
  ]
}
